Three molecules from paper PMC3445516 (PLoS ONE, 2012) can be followed below.

Common to all, as to experiment: Ambit kinase profiling, competition binding
One experiment relates to EGFR(L747-T751del,Sins). On the set-up: species or system human. Conditions: for % Competition: 10 µM. The protocol: (§1) Also included in the kinase profile are four isoforms of PKC (δ, ε, η, θ) and eight isoforms of CAMKs (CAMKIα, δ, γ; CAMKIIα, β, δ, γ; CAMK4).
(§2) The global kinase profiling experiment was performed by Ambit Biosciences.

A further experiment addresses PKCδ (Homo sapiens, UniProt Q05655). Details: purchased Ambit Biosciences (KINOMEscan). Conditions: for competition: PKC δ, 10 µM. Here is the method:
as §1, §2

The next experiment addresses T1, MARK2 (Homo sapiens, UniProt Q7KZI7).
T1 construct: purchased Ambit Biosciences (KINOMEscan)
Here is the method: as §1, §2

The next experiment deals with T2, EPHB4 (Homo sapiens, UniProt P54760).
T2 construct: purchased Ambit Biosciences (KINOMEscan)
T2 sequence (P54760 16-987): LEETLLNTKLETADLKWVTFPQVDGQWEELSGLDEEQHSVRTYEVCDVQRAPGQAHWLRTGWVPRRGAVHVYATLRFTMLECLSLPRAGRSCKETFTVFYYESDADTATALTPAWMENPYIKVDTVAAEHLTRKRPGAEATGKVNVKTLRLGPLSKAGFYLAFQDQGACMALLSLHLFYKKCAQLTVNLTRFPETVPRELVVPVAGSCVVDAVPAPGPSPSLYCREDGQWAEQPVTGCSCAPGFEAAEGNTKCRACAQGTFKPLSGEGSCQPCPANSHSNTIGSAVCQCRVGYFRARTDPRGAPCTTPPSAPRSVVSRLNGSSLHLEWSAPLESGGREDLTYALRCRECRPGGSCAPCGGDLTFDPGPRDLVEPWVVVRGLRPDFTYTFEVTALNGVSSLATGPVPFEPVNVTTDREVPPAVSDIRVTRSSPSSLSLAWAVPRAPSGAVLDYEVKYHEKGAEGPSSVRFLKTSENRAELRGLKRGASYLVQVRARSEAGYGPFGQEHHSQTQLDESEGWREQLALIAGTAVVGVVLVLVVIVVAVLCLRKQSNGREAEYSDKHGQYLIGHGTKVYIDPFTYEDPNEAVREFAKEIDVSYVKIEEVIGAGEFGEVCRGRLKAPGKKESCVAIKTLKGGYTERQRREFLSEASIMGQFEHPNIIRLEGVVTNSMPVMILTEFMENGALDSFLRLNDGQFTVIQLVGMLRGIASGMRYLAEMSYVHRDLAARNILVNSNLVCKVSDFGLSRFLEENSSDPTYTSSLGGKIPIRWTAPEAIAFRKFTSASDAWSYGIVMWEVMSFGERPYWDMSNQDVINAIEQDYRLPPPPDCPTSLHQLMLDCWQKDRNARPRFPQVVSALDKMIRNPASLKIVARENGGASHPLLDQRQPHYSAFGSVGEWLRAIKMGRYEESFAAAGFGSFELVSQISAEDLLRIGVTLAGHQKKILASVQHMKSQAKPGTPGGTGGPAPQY
The protocol: as §1, §2

For another experiment, the target named is T3, TTK (Homo sapiens, UniProt P33981).
T3 construct: purchased Ambit Biosciences (KINOMEscan)
T3 sequence (P33981 1-857): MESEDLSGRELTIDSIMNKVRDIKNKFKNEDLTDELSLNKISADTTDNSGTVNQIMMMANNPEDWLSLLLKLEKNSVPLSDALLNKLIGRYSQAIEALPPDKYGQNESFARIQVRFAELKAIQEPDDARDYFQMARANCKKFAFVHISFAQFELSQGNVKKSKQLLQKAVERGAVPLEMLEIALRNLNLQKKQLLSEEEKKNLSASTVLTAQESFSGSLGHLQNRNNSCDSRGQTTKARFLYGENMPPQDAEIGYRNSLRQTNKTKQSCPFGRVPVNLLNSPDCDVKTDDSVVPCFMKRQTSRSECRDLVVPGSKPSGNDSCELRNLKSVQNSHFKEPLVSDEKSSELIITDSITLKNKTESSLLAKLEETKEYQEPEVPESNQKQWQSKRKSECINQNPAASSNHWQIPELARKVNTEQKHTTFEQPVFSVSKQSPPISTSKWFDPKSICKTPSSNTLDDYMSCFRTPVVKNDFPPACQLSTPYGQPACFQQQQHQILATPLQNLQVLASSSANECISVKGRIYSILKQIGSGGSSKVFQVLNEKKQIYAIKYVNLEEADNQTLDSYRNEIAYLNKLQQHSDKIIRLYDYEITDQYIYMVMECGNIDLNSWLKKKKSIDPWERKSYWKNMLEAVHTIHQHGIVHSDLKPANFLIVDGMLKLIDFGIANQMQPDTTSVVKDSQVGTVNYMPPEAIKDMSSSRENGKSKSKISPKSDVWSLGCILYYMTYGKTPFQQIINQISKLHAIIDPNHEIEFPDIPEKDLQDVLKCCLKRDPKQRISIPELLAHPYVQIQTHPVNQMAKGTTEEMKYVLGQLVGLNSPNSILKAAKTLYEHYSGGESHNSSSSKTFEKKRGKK
Here is the method:
as §1, §2

The target of a further experiment is T4, RET(M918T) (Homo sapiens, UniProt P07949, M918T).
T4 construct: purchased Ambit Biosciences (KINOMEscan)
Here is the method: as §1, §2

The next experiment concerns the target T5, TGFBR1 (Homo sapiens, UniProt P36897).
T5 construct: purchased Ambit Biosciences (KINOMEscan)
T5 sequence (P36897 34-503): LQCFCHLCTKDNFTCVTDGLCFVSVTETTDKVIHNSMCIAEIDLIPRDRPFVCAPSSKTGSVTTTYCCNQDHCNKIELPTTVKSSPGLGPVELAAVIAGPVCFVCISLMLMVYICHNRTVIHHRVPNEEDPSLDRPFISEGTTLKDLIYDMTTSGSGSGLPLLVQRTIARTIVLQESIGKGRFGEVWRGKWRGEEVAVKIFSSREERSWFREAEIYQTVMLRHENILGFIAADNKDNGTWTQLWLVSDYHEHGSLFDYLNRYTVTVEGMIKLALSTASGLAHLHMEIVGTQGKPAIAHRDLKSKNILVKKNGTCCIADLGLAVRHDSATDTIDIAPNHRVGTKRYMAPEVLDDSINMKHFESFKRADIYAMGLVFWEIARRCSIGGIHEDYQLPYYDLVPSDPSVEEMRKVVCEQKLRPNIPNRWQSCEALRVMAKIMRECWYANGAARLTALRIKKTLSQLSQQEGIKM
Here is the method:
as §1, §2

Structures are written as SMILES. Read-outs that look alike come from different tables or passages of the source.

T4 sequence (P07949 29-1114 M918T): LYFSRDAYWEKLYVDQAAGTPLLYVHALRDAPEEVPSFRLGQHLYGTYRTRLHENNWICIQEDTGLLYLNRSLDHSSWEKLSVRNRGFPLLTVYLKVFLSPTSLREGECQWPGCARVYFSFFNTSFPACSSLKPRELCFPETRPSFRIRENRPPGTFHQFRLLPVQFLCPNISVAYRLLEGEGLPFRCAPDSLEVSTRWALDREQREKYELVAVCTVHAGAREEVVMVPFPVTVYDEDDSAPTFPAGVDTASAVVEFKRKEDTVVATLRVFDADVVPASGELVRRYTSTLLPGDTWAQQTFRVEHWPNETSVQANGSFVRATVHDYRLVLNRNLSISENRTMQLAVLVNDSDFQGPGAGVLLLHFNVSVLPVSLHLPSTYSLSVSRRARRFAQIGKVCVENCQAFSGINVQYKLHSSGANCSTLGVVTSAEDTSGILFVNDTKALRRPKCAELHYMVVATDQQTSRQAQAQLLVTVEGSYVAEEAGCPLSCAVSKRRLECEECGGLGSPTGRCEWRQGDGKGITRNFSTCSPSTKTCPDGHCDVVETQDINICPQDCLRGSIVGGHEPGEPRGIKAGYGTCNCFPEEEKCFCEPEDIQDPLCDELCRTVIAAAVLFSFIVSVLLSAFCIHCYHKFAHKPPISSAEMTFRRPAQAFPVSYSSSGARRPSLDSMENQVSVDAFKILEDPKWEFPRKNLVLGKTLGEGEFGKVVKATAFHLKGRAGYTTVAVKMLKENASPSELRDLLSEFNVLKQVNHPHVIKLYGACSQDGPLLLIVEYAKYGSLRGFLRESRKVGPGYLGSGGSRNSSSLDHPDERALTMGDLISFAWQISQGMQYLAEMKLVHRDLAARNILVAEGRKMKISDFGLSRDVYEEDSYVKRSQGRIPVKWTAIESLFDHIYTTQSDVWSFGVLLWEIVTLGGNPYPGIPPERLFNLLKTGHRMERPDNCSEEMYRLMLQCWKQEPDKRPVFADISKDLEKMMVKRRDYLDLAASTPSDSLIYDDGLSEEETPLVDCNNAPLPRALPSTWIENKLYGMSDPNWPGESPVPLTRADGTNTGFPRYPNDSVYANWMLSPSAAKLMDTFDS
T1 sequence (Q7KZI7 whole entry): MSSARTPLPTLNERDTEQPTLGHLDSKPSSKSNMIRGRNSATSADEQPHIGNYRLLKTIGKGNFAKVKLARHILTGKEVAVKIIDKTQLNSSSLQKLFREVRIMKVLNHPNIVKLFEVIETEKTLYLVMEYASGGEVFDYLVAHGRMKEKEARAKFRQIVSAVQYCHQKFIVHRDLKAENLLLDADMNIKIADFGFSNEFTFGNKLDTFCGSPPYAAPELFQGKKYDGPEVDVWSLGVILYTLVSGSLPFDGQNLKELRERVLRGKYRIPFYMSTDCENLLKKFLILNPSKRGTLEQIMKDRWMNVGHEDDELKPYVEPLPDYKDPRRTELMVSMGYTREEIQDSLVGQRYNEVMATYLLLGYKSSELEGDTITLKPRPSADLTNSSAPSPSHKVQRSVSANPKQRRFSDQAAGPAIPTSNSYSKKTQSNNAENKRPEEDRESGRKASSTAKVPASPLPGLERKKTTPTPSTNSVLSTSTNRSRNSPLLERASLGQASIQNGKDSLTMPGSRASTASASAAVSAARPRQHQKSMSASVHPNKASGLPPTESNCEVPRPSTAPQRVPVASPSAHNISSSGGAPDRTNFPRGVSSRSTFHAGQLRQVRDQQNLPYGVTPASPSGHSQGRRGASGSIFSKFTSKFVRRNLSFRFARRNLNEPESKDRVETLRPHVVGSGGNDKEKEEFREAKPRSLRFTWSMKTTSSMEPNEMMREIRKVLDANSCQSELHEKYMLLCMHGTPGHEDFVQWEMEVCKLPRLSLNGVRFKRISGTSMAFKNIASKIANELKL
Chain of PKCδ (Q05655 whole entry): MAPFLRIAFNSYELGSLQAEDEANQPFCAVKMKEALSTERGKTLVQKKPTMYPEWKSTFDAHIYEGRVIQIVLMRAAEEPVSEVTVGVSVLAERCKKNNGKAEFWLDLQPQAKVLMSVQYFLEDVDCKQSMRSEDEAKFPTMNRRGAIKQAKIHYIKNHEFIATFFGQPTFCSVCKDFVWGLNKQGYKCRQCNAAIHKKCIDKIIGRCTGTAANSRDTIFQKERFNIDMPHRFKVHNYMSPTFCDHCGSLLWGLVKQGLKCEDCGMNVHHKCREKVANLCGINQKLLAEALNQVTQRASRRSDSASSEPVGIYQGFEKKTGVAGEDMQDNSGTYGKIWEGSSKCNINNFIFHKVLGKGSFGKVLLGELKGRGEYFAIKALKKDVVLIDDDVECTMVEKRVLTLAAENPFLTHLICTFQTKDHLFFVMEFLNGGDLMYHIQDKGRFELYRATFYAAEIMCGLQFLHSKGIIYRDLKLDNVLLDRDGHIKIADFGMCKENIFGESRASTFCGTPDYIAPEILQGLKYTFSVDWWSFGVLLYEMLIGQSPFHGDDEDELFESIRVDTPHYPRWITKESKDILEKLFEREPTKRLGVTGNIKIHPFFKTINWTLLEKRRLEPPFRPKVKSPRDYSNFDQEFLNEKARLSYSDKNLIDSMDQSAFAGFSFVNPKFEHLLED

On to `Fc1ccc(-c2c(-c3ccncc3)[nH]c3nccnc23)cc1` [Compound 122], for which, in the experiment on EGFR(L747-T751del,Sins), the “% Competition” value was 97%. The same molecule yielded a competition at PKCδ of under 50%. Moreover, the inhibition at 10 µM at MARK2 (MARK2, 10 µM, read-out: % Competition) was 77%; on EPHB4 (EPHB4, 10 µM, read-out: % Competition) it was 72%; on TTK (TTK, 10 µM, read-out: % Competition), 88%; on RET(M918T) (RET(M918T), 10 µM, read-out: % Competition), 68%; at TGFBR1 (TGFBR1, 10 µM, read-out: % Competition), 91%.

As for `CC(O)CNc1cc(-c2[nH]c3cccnc3c2-c2ccc(F)cc2)ccn1` (stereo not drawn) [Compound 140], the “% Competition” value with EGFR(L747-T751del,Sins) was found to be 90%. Besides, on PKCδ, the competition is on record as under 50%. Also, the inhibition at 10 µM was under 50% at MARK2 (read-out: % Competition); under 50% at EPHB4 (read-out: % Competition); 90% at TTK (read-out: % Competition); under 50% on RET(M918T) (read-out: % Competition); under 50% at TGFBR1 (read-out: % Competition).

Take `Fc1ccc(-c2c(-c3ccncc3)[nH]c3nccnc23)cc1` [RO1155697-000-005]: the “Percent Competition” value in the experiment with EGFR(L747-T751del,Sins) (compound concentration 10 uM) amounted to 97%. Besides, the inhibition at 10 µM on PKCδ (PRKCD, compound concentration 10 uM, read-out: Percent Competition) was under 50%; at MARK2 (MARK2, compound concentration 10 uM, read-out: Percent Competition), 77%; on EPHB4 (EPHB4, compound concentration 10 uM, read-out: Percent Competition), 72%; on TTK (TTK, compound concentration 10 uM, read-out: Percent Competition) it was 88%; at RET(M918T) (RET(M918T), compound concentration 10 uM, read-out: Percent Competition), 68%; at TGFBR1 (TGFBR1, compound concentration 10 uM, read-out: Percent Competition), 91%.
